Source: patent publication USRE48335E1, “Polymyxin derivatives as antimicrobial compounds” (priority 2014, dated 2020)
Values after ≈ are worked out from the molar mass of the structure shown. Positions of bridges follow the written chain, without caps; N, C: chain ends. Non-standard residues stand in square brackets, D forms with d. Residues, ends and D or L forms follow the SMILES beside them. *: point of attachment. Benzoyl(3-CF3) = O=C(c1cccc(C(F)(F)F)c1)*; Benzoyl(4-Cl) = O=C(c1ccc(Cl)cc1)*; X12 = O=C(c1ccc(C(F)(F)F)c(F)c1)*; X9 = Cc1ccc(C(=O)*)cc1C(F)(F)F; X10 = O=C(c1cc(F)cc(Cl)c1)*; X11 = Cc1ccc(C(=O)*)cc1Cl; Octanoyl = CCCCCCCC(=O)*; Dab = NCC[C@H](N)C(=O)O; Abu = CC[C@H](N)C(=O)O; Dap = NC[C@H](N)C(=O)O

What was measured:
A. baumannii ATCC 19606 = experiment: In vivo efficacy in mouse blood infection model (neutropenic Swiss mice); settings: compound, free base 4 mg/kg intravenously 2 h after inoculation, blood at 4 h
Method in brief: (§1)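 Neutropenic Swiss mice (cyclophosphamide 150 mg/kg day −4, 100 mg/kg day −1, i.p.) infected i.v. with early log-phase bacteria; 4 mg/kg free base i.v. given 2 h post-inoculation. Blood CFU by cardiac puncture 4 h post-dose; Δlog10 CFU/mL treated versus saline controls.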

Klebsiella pneumoniae = tested on: Klebsiella pneumoniae
Method in brief: (§2)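 Read-out is the MIC, obtained by broth microdilution under CLSI guidance. Lipopeptides (TFA salt form) were diluted in cation-adjusted Mueller-Hinton broth, with polymyxin B sulphate run alongside as control.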

Pseudomonas aeruginosa = tested on: Pseudomonas aeruginosa
Method in brief: as §2

Enterobacter cloacae = tested on: Enterobacter cloacae
Method in brief: as §2

Acinetobacter baumannii = tested on: Acinetobacter baumannii
Method in brief: as §2

P. aeruginosa ATCC 27853 = experiment: In vivo efficacy in mouse blood infection model (neutropenic Swiss mice); settings: compound, free base 4 mg/kg intravenously 2 h after inoculation, blood at 4 h
Method in brief: as §1

Compound | Δ log (Treated-Control at 4 h) (A. baumannii ATCC 19606) [log10 CFU/mL] | MIC (Klebsiella pneumoniae) [µg/mL] | MIC (Pseudomonas aeruginosa) [µg/mL] | Minimum inhibitory concentration, Pa ATCC 27853 (Pseudomonas aeruginosa) [µg/mL] | Minimum inhibitory concentration, Pa FADDI-PA022 (Pseudomonas aeruginosa) [µg/mL] | Minimum inhibitory concentration, Pa FADDI-PA025 (Pseudomonas aeruginosa) [µg/mL] | Minimum inhibitory concentration, Ec FADDI-EC001 (Enterobacter cloacae) [µg/mL] | Minimum inhibitory concentration, Ec FADDI-EC003 (Enterobacter cloacae) [µg/mL] | Minimum inhibitory concentration, Ec FADDI-EC006 (Enterobacter cloacae) [µg/mL] | MIC (Acinetobacter baumannii) [µg/mL] | Minimum inhibitory concentration, Ab A ATCC 17978 (Acinetobacter baumannii) [µg/mL] | Minimum inhibitory concentration, Ab ATCC 19606 (Acinetobacter baumannii) [µg/mL] | Minimum inhibitory concentration, Ab FADDI-AB034 (Acinetobacter baumannii) [µg/mL] | Δ log (Treated-Control at 4 h) (P. aeruginosa ATCC 27853) [log10 CFU/mL]
CC(C)C[C@H]1NC(=O)[C@H](CCN)NC(=O)[C@@H](NC(=O)[C@@H](CO)NC(=O)[C@@H](NC(=O)[C@H](CCN)NC(=O)c2cccc(C(F)(F)F)c2)[C@@H](C)O)CCNC(=O)[C@H]([C@@H](C)O)NC(=O)[C@H](CCN)NC(=O)[C@H](CCN)NC(=O)[C@H]([C@@H](C)O)NC1=O [Compound 19] ({Benzoyl(3-CF3)}-[Dab]T[dS][Dab][Dab][dL]T[Dab][Dab]T; lactam 4-C) | −1.58 | 0.5 (≈ 0.425 µM) | 32 (≈ 27.2 µM) | 32 (≈ 27.2 µM) | 16 (≈ 13.6 µM) | >32 | 1 (≈ 0.85 µM) | 0.5 (≈ 0.425 µM) | 0.5 (≈ 0.425 µM) | 2 (≈ 1.7 µM) | 0.5 (≈ 0.425 µM) | 2 (≈ 1.7 µM) | 4 (≈ 3.4 µM) | 
CCCCCCCC(=O)N[C@@H](CCN)C(=O)N[C@H](C(=O)N[C@@H](CCN)C(=O)N[C@H]1CCNC(=O)[C@H]([C@@H](C)O)NC(=O)[C@H](CCN)NC(=O)[C@H](CCN)NC(=O)[C@H](C)NC(=O)[C@@H](CC(C)C)NC(=O)[C@H](CCN)NC1=O)[C@@H](C)O [Compound 21] (Octanoyl-[Dab]T[Dab][Dab][Dab][dL]A[Dab][Dab]T; lactam 4-C) | −2.43 | 0.25 (≈ 0.225 µM) | 0.5 (≈ 0.449 µM) | 0.5 (≈ 0.449 µM) | 0.5 (≈ 0.449 µM) | >32 | 0.125 (≈ 0.112 µM) | 0.125 (≈ 0.112 µM) | 0.125 (≈ 0.112 µM) | 1 (≈ 0.898 µM) | 2 (≈ 1.8 µM) | 1 (≈ 0.898 µM) | 0.5 (≈ 0.449 µM) | −2.26
CC[C@@H]1NC(=O)[C@@H](CC(C)C)NC(=O)[C@H](CCN)NC(=O)[C@@H](NC(=O)[C@H](CN)NC(=O)[C@@H](NC(=O)[C@H](CCN)NC(=O)c2ccc(Cl)cc2)[C@@H](C)O)CCNC(=O)[C@H]([C@@H](C)O)NC(=O)[C@H](CCN)NC(=O)[C@H](CCN)NC1=O [Compound 94] ({Benzoyl(4-Cl)}-[Dab]T[Dap][Dab][Dab][dL][Abu][Dab][Dab]T; lactam 4-C) | −1.26 | 0.25 (≈ 0.222 µM) | 0.5 (≈ 0.444 µM) | 0.5 (≈ 0.444 µM) | 0.5 (≈ 0.444 µM) | 2 (≈ 1.78 µM) | 0.25 (≈ 0.222 µM) | 0.25 (≈ 0.222 µM) | 0.5 (≈ 0.444 µM) | 1 (≈ 0.888 µM) | 0.5 (≈ 0.444 µM) | 1 (≈ 0.888 µM) | 0.25 (≈ 0.222 µM) | −3.23
CC[C@@H]1NC(=O)[C@@H](CC(C)C)NC(=O)[C@H](CCN)NC(=O)[C@@H](NC(=O)[C@H](CN)NC(=O)[C@@H](NC(=O)[C@H](CCN)NC(=O)c2ccc(C)c(Cl)c2)[C@@H](C)O)CCNC(=O)[C@H]([C@@H](C)O)NC(=O)[C@H](CCN)NC(=O)[C@H](CCN)NC1=O [Compound 105] (X11-[Dab]T[Dap][Dab][Dab][dL][Abu][Dab][Dab]T; lactam 4-C) | −1.31 | 0.25 (≈ 0.219 µM) | 0.5 (≈ 0.439 µM) | 0.5 (≈ 0.439 µM) | 1 (≈ 0.877 µM) | 2 (≈ 1.75 µM) | 1 (≈ 0.877 µM) | 0.5 (≈ 0.439 µM) | 1 (≈ 0.877 µM) | 0.5 (≈ 0.439 µM) | 0.5 (≈ 0.439 µM) | 0.5 (≈ 0.439 µM) | 0.25 (≈ 0.219 µM) | −2.54
CC[C@@H]1NC(=O)[C@@H](CC(C)C)NC(=O)[C@H](CCN)NC(=O)[C@@H](NC(=O)[C@H](CN)NC(=O)[C@@H](NC(=O)[C@H](CCN)NC(=O)c2ccc(C(F)(F)F)c(F)c2)[C@@H](C)O)CCNC(=O)[C@H]([C@@H](C)O)NC(=O)[C@H](CCN)NC(=O)[C@H](CCN)NC1=O [Compound 111] (X12-[Dab]T[Dap][Dab][Dab][dL][Abu][Dab][Dab]T; lactam 4-C) | −1.66 | 0.25 (≈ 0.212 µM) | 1 (≈ 0.849 µM) | 0.5 (≈ 0.425 µM) | 1 (≈ 0.849 µM) | 1 (≈ 0.849 µM) | 0.5 (≈ 0.425 µM) | 0.25 (≈ 0.212 µM) | 0.25 (≈ 0.212 µM) | 0.5 (≈ 0.425 µM) | 0.5 (≈ 0.425 µM) | 0.5 (≈ 0.425 µM) | 0.25 (≈ 0.212 µM) | −3.65
CC[C@@H]1NC(=O)[C@@H](CC(C)C)NC(=O)[C@H](CCN)NC(=O)[C@@H](NC(=O)[C@H](CN)NC(=O)[C@@H](NC(=O)[C@H](CCN)NC(=O)c2ccc(C)c(C(F)(F)F)c2)[C@@H](C)O)CCNC(=O)[C@H]([C@@H](C)O)NC(=O)[C@H](CCN)NC(=O)[C@H](CCN)NC1=O [Compound 113] (X9-[Dab]T[Dap][Dab][Dab][dL][Abu][Dab][Dab]T; lactam 4-C) | −1.60 | 0.25 (≈ 0.213 µM) | 0.5 (≈ 0.426 µM) | 1 (≈ 0.852 µM) | 0.5 (≈ 0.426 µM) | 2 (≈ 1.7 µM) | 1 (≈ 0.852 µM) | 0.25 (≈ 0.213 µM) | 1 (≈ 0.852 µM) | 0.5 (≈ 0.426 µM) | 0.25 (≈ 0.213 µM) | 0.5 (≈ 0.426 µM) | 0.25 (≈ 0.213 µM) | −2.61
CC[C@@H]1NC(=O)[C@@H](CC(C)C)NC(=O)[C@H](CCN)NC(=O)[C@@H](NC(=O)[C@H](CN)NC(=O)[C@@H](NC(=O)[C@H](CCN)NC(=O)c2cc(F)cc(Cl)c2)[C@@H](C)O)CCNC(=O)[C@H]([C@@H](C)O)NC(=O)[C@H](CCN)NC(=O)[C@H](CCN)NC1=O [Compound 116] (X10-[Dab]T[Dap][Dab][Dab][dL][Abu][Dab][Dab]T; lactam 4-C) | −1.51 | 0.5 (≈ 0.437 µM) | 0.5 (≈ 0.437 µM) | 0.5 (≈ 0.437 µM) | 0.5 (≈ 0.437 µM) | 1 (≈ 0.874 µM) | 0.25 (≈ 0.219 µM) | 0.25 (≈ 0.219 µM) | 0.25 (≈ 0.219 µM) | 0.5 (≈ 0.437 µM) | 0.5 (≈ 0.437 µM) | 0.5 (≈ 0.437 µM) | 0.25 (≈ 0.219 µM) | −2.81
